Assay results taken from patent publication US20230035479A1, “METHODS AND COMPOSITIONS FOR REDUCING HAIR GREYING” (President and Fellows of Harvard College, priority 2019, published 2023).
Where two headings read alike, the source gives them in different places.

How the values were obtained:
[1] = test system: melanocyte stem cells (MeSCs); test: MeSC proliferation, Phospho-Histone H3 immunofluorescence; settings: for MeSC quiescence in RTX-injected animals: topical 5 mg/kg, until 48 hours post RTX injection
Method: For RTX injection, mice received injections of RTX (30-100 μg/kg) in the flank for 1-3 days as described previously [15, 16, 51-56]. […] Control mice were treated with the vehicle only. RTX injection was done either in full anagen (P31-P36) or in 1st telogen (P21). […] RTX was given at Anagen VI (P31˜P36).
All images were acquired using a Zeiss LSM 880 confocal microscope or Keyence microscope using ×20 or ×40 magnification lenses. Images are presented as Maximum Intensity Projection images. For colocalization analysis, images are presented as a single Z stack.

C57BL/6J mice = format: in vivo, mouse
mature melanocytes = test: Differentiated/mature melanocytes and hair bulb cells, immunofluorescence; format: in vivo, mouse; settings: full anagen; for proliferation of cells in the hair bulb: RTX-injected animals, topical CDK inhibitors
Method: Loss of hair pigmentation can be due to defects in melanin synthesis, loss of differentiated melanocytes, or problems in MeSC maintenance. To understand how stress impacts the melanocyte lineage, RTX was injected into mice in anagen, when both MeSCs and differentiated melanocytes were present but located within distinct compartments—MeSCs were near to the bulge while differentiated melanocytes were at the hair bulb (FIG. 1E). […] These differentiated melanocytes continued to generate pigments, and the hair coat remained black (FIGS. 6F-6G). When hair follicles in the RTX-injected animals entered catagen and telogen, many have lost all MeSCs (FIG. 1E, Telo). Subsequently, when the next round of anagen initiated, differentiated melanocytes were not produced to color new hair shafts, and unpigmented hairs emerged (FIG. 1E, 2nd Ana, FIG. 6H). […] In this case, unpigmented hairs appeared as soon as new hairs emerged in the following anagen (FIGS. 7A-7B). […] MeSCs were also lost or reduced in mice subjected to restraint stress or chronic unpredictable stress (FIG. 7C). Since stress depleted MeSCs, the loss of hair pigmentation in all three conditions was permanent (FIG. 7D).
Quiescence is a key feature of many somatic stem cells. Loss of quiescence has been postulated to cause MeSC loss in Bcl2 mutants. To examine if stress alters MeSCs quiescence, RTX or norepinephrine was injected into mice that had entered full anagen, when MeSCs are normally quiescent. A dramatic increase in the number of proliferating MeSCs was seen within 24 hours after RTX or norepinephrine injection—about 50% of MeSCs became positive for Phospho-Histone H3, an M phase marker (FIG. 4B). This number is in sharp contrast to the MeSC proliferation seen in early anagen (˜6%), the only stage when MeSCs proliferate to self-renew (FIG. 11E).
(§1) Mouse skin samples were fixed using 4% paraformaldehyde (PFA) for 15 minutes at room temperature, washed 6 times with PBS, and immersed in 30% sucrose overnight at 4° C. Samples were then embedded in OCT (Sakura Finetek). 35˜50 μm sections were fixed in 4% paraformaldehyde (PFA) for 2 minutes and washed with PBS and PBST. Slides were then blocked using blocking buffer (5% donkey serum; 1% BSA, 2% cold water fish gelatin in 0.3% Triton in PBS) for 1 hour at room temperature, followed by staining with primary antibodies overnight at 4° C. and secondary antibody for 4 hours at room temperature. For sympathetic nerve density quantification, 90 μm sections were used. EdU was developed for 1 hour using the Click-It reaction according to manufacturer instructions (Thermo Fisher Scientific). TUNEL assay was performed according to manufacturer instructions (Roche). Fontana—Masson staining was performed according to manufacturer instructions (Market Lab ML7255). Antibodies used: TRP2 (Santa Cruz 10451, 1:800), tyrosine hydroxylase (rabbit, Millipore AB152, 1:1000 or sheep, Millipore AB1542, 1:150-1:300), c-Fos (Abcam, 190289, 1:1000), γ-H2AX (Cell Signaling, 9718, 1:400), phospho-histone H3 (rabbit, Cell Signaling Technology 3377S, 1:500), cleaved caspase 3 (rabbit, Cell Signaling Technology 9664S, 1:400), GFP (rabbit, Abcam ab290, 1:1000 or chicken, Ayes labs GFP-1010, 1:200), CD3 (eBioscience 14-0032-81, 1:800), CD11b (eBioscience 14-0112-81, 1:800), Phospho-CREB (Cell Signaling 9198, 1:800), MITF (Abcam ab12039, 1:400).

[2] = test system: melanocyte stem cells (MeSCs); test: MeSC numbers in hair follicles, TRP2 immunofluorescence or membrane GFP tracing; settings: for MeSC preservation in RTX-injected animals: topical 5 mg/kg, until 48 hours post RTX injection, full anagen
Method: For RTX injection, mice received injections of RTX (30-100 μg/kg) in the flank for 1-3 days as described previously [15, 16, 51-56]. […] Control mice were treated with the vehicle only. RTX injection was done either in full anagen (P31-P36) or in 1st telogen (P21). […] Mice were treated for three days (P28-P30). […] RTX was given at Anagen VI (P31˜P36).

[3] = test system: melanocyte stem cells (MeSCs); test: Corticosterone feeding in drinking water; settings: corticosterone elevated via feeding, 35 μg/ml in drinking water, three days
Method: Since all stressors led to elevated corticosterone and norepinephrine in the blood, it was considered if these stress-induced circulating factors played a role in stress-induced MeSC loss.
Control mice were treated with the vehicle only. […] Mice were treated for three days (P28-P30).

Gq-DREADD = Gq-DREADD (Homo sapiens, UniProt P20309, A239G/Y149C); test: Sympathetic nerve activation with Gq-DREADD by intradermal CNO
Source text: To determine if sympathetic nerve activation in the absence of stress is sufficient to drive MeSC loss, a chemogenetic approach was taken using the Designer Receptor Exclusively Activated by Designer Drugs (DREADDs) system [3, 4]. Gq-DREADD is an artificial Gq-protein coupled receptor activated by the inert molecule Clozapine N-Oxide (CNO) but not by endogenous ligands. Activation of Gq-DREADD leads to intracellular calcium release and neuronal firing. TH-CreER; CAG-lsl-Gq-DREADD; Rosa-mT/mG mice were generated, which allowed for artificial activation of sympathetic nerves with CNO (FIG. 3D).
Control mice were treated with the vehicle only. […] For tamoxifen treatment, tamoxifen was diluted in corn oil to a final concentration of 20 mg/ml. To induce recombination, 20 mg/kg was injected intraperitoneally once per day for 4-7 days. For mosaic induction of Tyr-CreER and TH-CreER, 20 mg/kg tamoxifen was injected intraperitoneally once per day for 3 days. […] Control animals were injected with equivalent volume of vehicle (0.1% ascorbic acid in 0.9% sterile NaCl) with fluorescent beads. The injection sites were marked using water resistant ink. […] For Induction of Gq-DREADD, 50 μl CNO (1 mg/ml in 0.9% sterile saline) was injected intradermally into experimental animals together with fluorescent beads at full anagen (P31˜P36). Control animals were injected with equivalent volume of vehicle (0.9% sterile saline) together with fluorescent beads.
(§4) For intradermal injection experiments (NE or CNO), unpigmented hairs were quantified by plucking ˜100 hairs from each injection site (marked by water resistant ink at the time of injection), and the percentage of white hairs were calculated by dividing the number of white hairs by the total number of hairs plucked.

sympathetic neurons = test: c-FOS immunofluorescence in sympathetic ganglia; format: in vivo, mouse; settings: TH-CreER; Gq-DREADD mice injected with CNO
human hair follicles = test: Cultured human hair follicles, pigmented bulge or outer root sheath cells; format: cell-based; settings: 24 hours
Method: (§2) FIG. 14C provides quantification of the proportion of follicles that contain pigmented bulge or outer root sheath cells vs those lacking such pigmented cells outside of the bulb region. Human discarded hair bearing skin was cultured for 3 days with single hairs being isolated and grown in semi solid agarose William E medium with vehicle or norepinephrine (0.1 mM) for 24 hours. The cells were assessed after culture to identify those that were pigmented from those that were not. The presence of pigmented cells indicates senescence of melanocyte stem cells. Signal in vehicle control likely reflects the middle-age of the donor follicles.
Hair follicles from discarded scalp skin of […] was cultured for 3 days. Single hairs were isolated and grown in a semi agarose William E medium with vehicle, norepinephrine (NE) (0.1 mM), or NE (0.1 mM) +butoxamine (0.1 mM) (β2 blocker) for 24 hours. The graph indicates the proportion of follicles containing (or lacking) pigmented melanocytes (see arrows) in the bulge or outer root sheath locations, indicating melanocyte stem cell differentiation/senescence.

CREB/ATF1 = CREB/ATF1 phosphorylation in human primary melanocytes; format: cell-based; settings: 10 uM, after 15 minutes
Method: as §2
(§3) Primary human melanocytes were derived from neonatal foreskin as previously described and cultured in Medium 254 (Invitrogen, Thermo Fisher Scientific). Melanocytes (passages 2 and 4) were starved for 24 hours in HAM's F-10 +1% penicillin/streptomycin/glutamine before adding NE (10 uM).

ADRB2 on MeSCs = ADRB2 on MeSCs (Mus musculus, UniProt P18762); test: Hair greying after intradermal norepinephrine injection
Method: To test if elevated norepinephrine was sufficient to cause hair greying in the absence of stress, norepinephrine was introduced locally to the skin via intradermal injections.
For tamoxifen treatment, tamoxifen was diluted in corn oil to a final concentration of 20 mg/ml. To induce recombination, 20 mg/kg was injected intraperitoneally once per day for 4-7 days. […] 50 μm was injected intradermally into experimental animals together with fluorescent beads at full anagen (P31˜P36). Control animals were injected with equivalent volume of vehicle (0.1% ascorbic acid in 0.9% sterile NaCl) with fluorescent beads. The injection sites were marked using water resistant ink.
as §4

[4] = test system: melanocyte stem cells (MeSCs); test: Apoptosis (active caspase-3, TUNEL) and DNA damage (gamma-H2AX) in MeSCs; format: in vivo, mouse
Method: Radiation causes DNA damage in MeSCs, leading to their differentiation within the niche.
as §1

[5] = test system: primary human melanocytes; test: qRT-PCR in cultured primary human melanocytes treated with norepinephrine; format: cell-based
Method: as §3
The cDNA libraries were synthesized using Superscript IV VILO master mix with ezDNase (Thermo Fisher). Quantitative real time PCR was performed using power SYBR green (Thermo Fisher) in an ABI QuantStudio6 Flex qPCR instrument. Ct values were normalized to an internal control of beta-actin.

[6] = topical 5 mg/kg in ethanol, 48 h before to 48 h after RTX
[7] = sympathetic nerve ablation, 100 mg/kg intraperitoneally daily P18 to P22

Sequence of Gq-DREADD (P20309 whole entry Y149C/A239G): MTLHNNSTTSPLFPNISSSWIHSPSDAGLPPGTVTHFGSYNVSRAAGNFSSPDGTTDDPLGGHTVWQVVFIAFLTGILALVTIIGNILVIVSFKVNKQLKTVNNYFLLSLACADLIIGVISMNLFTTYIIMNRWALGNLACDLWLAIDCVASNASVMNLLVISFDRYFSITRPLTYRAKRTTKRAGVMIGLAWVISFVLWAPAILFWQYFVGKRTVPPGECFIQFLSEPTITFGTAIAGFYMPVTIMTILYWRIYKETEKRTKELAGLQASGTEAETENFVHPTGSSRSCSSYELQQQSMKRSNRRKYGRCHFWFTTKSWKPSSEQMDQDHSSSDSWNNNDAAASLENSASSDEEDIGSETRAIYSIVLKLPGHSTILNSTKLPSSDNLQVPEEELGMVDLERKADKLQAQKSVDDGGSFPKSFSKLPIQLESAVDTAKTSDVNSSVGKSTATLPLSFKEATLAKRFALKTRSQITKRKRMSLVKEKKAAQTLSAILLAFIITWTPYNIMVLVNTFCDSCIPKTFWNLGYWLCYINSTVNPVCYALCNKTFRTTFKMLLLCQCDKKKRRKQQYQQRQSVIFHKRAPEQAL
Sequence of ADRB2 on MeSCs (P18762 whole entry): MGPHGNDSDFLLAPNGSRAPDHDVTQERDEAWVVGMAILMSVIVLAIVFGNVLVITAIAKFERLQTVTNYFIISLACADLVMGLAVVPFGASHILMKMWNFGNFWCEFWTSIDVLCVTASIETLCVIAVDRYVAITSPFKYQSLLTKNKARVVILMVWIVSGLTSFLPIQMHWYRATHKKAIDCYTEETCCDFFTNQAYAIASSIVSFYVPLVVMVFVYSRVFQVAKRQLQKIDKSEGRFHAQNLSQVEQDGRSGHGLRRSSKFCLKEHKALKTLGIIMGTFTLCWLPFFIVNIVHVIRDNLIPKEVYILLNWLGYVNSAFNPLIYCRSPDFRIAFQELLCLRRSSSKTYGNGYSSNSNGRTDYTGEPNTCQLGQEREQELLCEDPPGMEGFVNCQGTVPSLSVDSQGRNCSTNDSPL

SMILES: CN1CC[C@H](c2c(O)cc(O)c3c(=O)cc(-c4ccccc4Cl)oc23)[C@H](O)C1 [Flavopiridol]
- MeSC quiescence in RTX-injected animals [1]: remained quiescent
- effect on RTX-induced hair greying (C57BL/6J mice; [6]): inhibits RTX-induced hair greying
- proliferation of cells in the hair bulb (mature melanocytes): remained largely normal
- MeSC preservation in RTX-injected animals [2]: preserved in the niche

SMILES: C[C@]12C[C@H](O)[C@H]3[C@@H](CCC4=CC(=O)CC[C@@]43C)[C@@H]1CC[C@@H]2C(=O)CO [corticosterone]
- changes in MeSCs [3]: no changes in MeSCs or hair pigmentation
- changes in hair pigmentation [3]: no changes in MeSCs or hair pigmentation

SMILES: C[N+]1([O-])CCN(C2=Nc3cc(Cl)ccc3Nc3ccccc32)CC1 [CNO, Clozapine N-Oxide]
- hair greying at CNO injection sites (Gq-DREADD; TH-CreER, Gq-DREADD mice): led to loss of MeSCs and hair greying at the sites where CNO was injected
- loss of MeSCs at CNO injection sites (Gq-DREADD; TH-CreER, Gq-DREADD mice): led to loss of MeSCs
- MeSC loss with mosaic TH-CreER activation (Gq-DREADD; low dose of tamoxifen): resulted in MeSC loss only in hair follicles innervated by DREADD-positive nerve fibres
- c-FOS activation in sympathetic ganglia (sympathetic neurons): induced c-FOS activation in sympathetic ganglia

SMILES: N=C(N)NCCN1CCCCCCC1 [guanethidine]
- effect on MeSC loss upon RTX injection ([2]; mouse, in vivo): suppressed hair greying and MeSC loss

SMILES: O=C(NC1CCNCC1)c1n[nH]cc1NC(=O)c1c(Cl)cccc1Cl [AT7519, N-(4-Piperidinyl)-4-(2,6-dichlorobenzoylamino)-1H-pyrazole-3-carboxamide]
- MeSC quiescence in RTX-injected animals [1]: remained quiescent
- effect on RTX-induced hair greying (C57BL/6J mice; [6]): inhibits RTX-induced hair greying
- proliferation of cells in the hair bulb (mature melanocytes): remained largely normal
- MeSC preservation in RTX-injected animals [2]: preserved in the niche

SMILES: NCCc1cc(O)c(O)cc1O [6-OHDA, 6-hydroxy dopamine]
- effect on RTX-induced hair greying (C57BL/6J mice; [7]): blocked RTX-induced hair greying
- effect on RTX-induced MeSC loss [2, 7]: blocked RTX-induced hair greying and MeSC loss

SMILES: NC[C@H](O)c1ccc(O)c(O)c1 [norepinephrine]
- melanocyte stem cell pigmentation in human hair follicles (human hair follicles; norepinephrine 0.1 mM): heavy norepinephrine-induced melanocyte stem cell pigmentation
- phosphorylation/activation of CREB/ATF1 (CREB/ATF1): induces transient phosphorylation/activation of CREB/ATF1
- hair greying at injection sites (ADRB2 on MeSCs; HFSC-specific adrb2 knockout mice): promoted hair greying at the injection sites
- hair greying at injection sites (ADRB2 on MeSCs; MeSC-specific adrb2 knockout mice): failed to cause hair greying
- hair greying at injection sites (ADRB2 on MeSCs; wild type mice, absence of stress): promoted hair greying at the injection sites
- active caspase-3 or TUNEL signals in MeSCs ([4]; before MeSC depletion from the niche, 1 day after injection): failed to detect active caspase-3 or TUNEL signals
- gamma-H2AX foci (DNA damage) in MeSCs ([4]; following injection): failure to detect gamma-H2AX foci
- MeSCs positive for Phospho-Histone H3 ([1]; within 24 hours after injection, full anagen): about 50%
- expression of proliferation and differentiation genes ([5]; cultured human melanocyte cells, NE 10 uM): rapid induction of proliferation genes like Cdk2, and differentiation genes like Mitf and Tyr
- expression of MITF and MITF target genes ([5]; cultured primary human melanocytes): induces MITF and multiple MITF target genes
- proliferation or apoptosis in mature melanocytes (mature melanocytes; after injection): no changes in proliferation or apoptosis

SMILES: COc1ccc(OC)c(C(O)C(C)NC(C)(C)C)c1 (centres unmarked) [butoxamine]
- effect on norepinephrine-induced melanocyte pigmentation/senescence (human hair follicles; NE 0.1 mM + butoxamine 0.1 mM, follicles of person): prevents norepinephrine-induced melanocyte pigmentation/senescence
